From patent US20240368174A1, “Antiviral Heterocyclic Compounds” (Enanta Pharmaceuticals, Inc., priority 2023, published 2024)

Each molecule was assayed on HMPV clinical isolate A2 strain TN 94-49 (assay: HMPV antiviral assay, Method 2 (LLC-MK2 cells with CP-100-356, ATP-Lite)). Details: human metapneumovirus; hMPV A2 TN/94-49, LLC-MK2 cells with CP-100-356, Method 2.
Assay type: cell-based
Description: In vitro HMPV antiviral activity was evaluated using the clinical isolate A2 strain TN 94-49 (obtained from Dr. John Williams, Vanderbilt University, Tennessee) and LLC-MK2 cells (Millipore Sigma CB_85062804), an immortalized kidney epithelial cell line from Macaca mulatta. Compounds were resuspended in dimethyl sulfoxide (DMSO) at 10 mM, serially diluted and added to a 384-well source plate. Subsequently, the compounds were diluted and transferred onto 384-well assay plates using the Echo-650 automated liquid handling system (Beckman Coulter, Indiana). The test compounds were assessed in duplicate at a top concentration of 200 nM followed by 2.5-fold serial dilutions to give a total of 10 concentration points. DMSO control wells were also included on the assay plates and were either infected or not, acting as positive and negative controls. A2 TN 94-49 virus infections were performed in-suspension with LLC-MK2 cells. The cells were washed twice with PBS and removed from the cell-culture flask with 0.25% trypsin-EDTA (Thermo Fisher Scientific, MA). The trypsin-EDTA was inactivated by resuspending in 2% fetal bovine serum (FBS) and OptiMEM (ThermoFisher Scientific, MA) containing 1% antibiotic-antimycotic. Cells were pelleted by centrifuging for 5 minutes at 800 rpm, the supernatant was removed, and cells were re-suspended and washed in PBS plus 100 μg/mL CaCl2). This step was performed twice. Cells were then re-suspended in serum-free (SF)-OptiMEM containing 4 μg/mL TPCK-Trypsin (Sigma Aldrich, MO), 1% antibiotic-antimycotic (ThermoFisher Scientific, MA), 100 μg/mL CaCl2), and 4 μM of CP-100-356, a P-glycoprotein inhibitor. Cells were counted and seeded at a density of 5,000 cells/well, 12.5 μL/well. Virus infections were done at a multiplicity of infection (MOI) of 0.16 with 12.5 μL added per well. Virus infections were performed in infection media which contained SF-OptiMEM, 100 μg/mL CaCl2) and 1% antibiotic-antimycotic. HMPV viral stocks are suspended in infection media+5% glycerol, thus an equal volume of infection media+5% glycerol was added to uninfected wells to equalize the final % glycerol across all wells of the assay plate. The final concentration of TPCK-trypsin was 2 μg/mL. The final concentration of CP-100-356 was 2 μM. The assay plates were incubated at 37° C., 5% CO2 for 7 days. After 7 days incubation, 12.5 μL of ATP-Lite (PerkinElmer, MA) was added to each well and the raw luminescence values were determined using the Envision 2104 (Perkin Elmer, MA). The average of the raw luminescence values for the cells and virus only positive control wells was subtracted from all conditions tested and the percent cell health was determined by dividing these values by the average of the cells only negative control wells. EC50 values were then calculated by non-linear regression using a four-parameter curve logistic equation. The curve fit model employed was XLFit Dose Response One Site Model 200: y=(A+(B/(1+((x/C)^D)))), where A is the minimum y value, B is the maximum y value, C is the log EC50 value, and D is the slope factor.

Row | SMILES | EC50 [nM]
1 | COc1cc(C(=O)NC[C@@](O)(c2cccc(F)n2)c2cc3c(c(-c4cc(Cl)c(F)cc4F)n2)OC[C@]3(C)C(N)=O)cc2cc(C3CC3)nn12 [Example 206] | < 200
2 | COc1cc(C(=O)NC[C@](O)(c2cc3c(c(-c4ccnc(F)c4Cl)n2)OC[C@]3(C)C(N)=O)C2CC2)cc2cn(C(F)F)nc12 [Example 207] | < 200
3 | COc1cc(C(=O)NC[C@](O)(c2cc3c(c(-c4ccnc(F)c4Cl)n2)OC[C@]3(C)C(N)=O)C2CC2)cc2oc(C3CC3)nc12 [Example 208] | < 200
4 | COc1cc(C(=O)NC[C@](O)(c2cc3c(c(-c4ccnc(F)c4Cl)n2)OC[C@]3(C)C(N)=O)C2CC2)cc2cn(C3(F)CC3)nc12 [Example 209] | < 200
5 | COc1cc(C(=O)NCC(O)(c2ccc(F)cn2)c2cc3c(c(-c4cc(Cl)c(F)cc4F)n2)OC[C@]3(C)C(N)=O)cc2cn(C3CC3)nc12 (stereo partly drawn) [Example 210] | < 200
6 | C[C@]1(C(N)=O)COc2c1cc([C@@](O)(CNC(=O)c1cc(OC(F)F)c3nc(C4CC4)oc3c1)c1ccccc1)nc2-c1cc(Cl)c(F)cc1F [Example 216] | < 200
7 | C[C@]1(C(N)=O)COc2c1cc([C@@](O)(CNC(=O)c1ccc3nc(C4(F)CC4)oc3c1)c1ccccc1)nc2-c1cc(Cl)c(F)cc1F [Example 219] | < 200
8 | [2H]c1nc2c(OC)cc(C(=O)NC[C@@](O)(c3ccccc3)c3cc4c(c(-c5cc(Cl)c(F)cc5F)n3)OC[C@]4(C)C(N)=O)cc2cc1Cl [Example 220] | < 200
9 | C[C@]1(C(N)=O)COc2c1cc([C@@](O)(CNC(=O)c1ccc3nc(C4CCC4)oc3c1)c1ccccc1)nc2-c1cc(Cl)c(F)cc1F [Example 221] | > 200
10 | C[C@]1(C(N)=O)COc2c1cc([C@@](O)(CNC(=O)c1ccc3nc(C(F)F)oc3c1)c1ccccc1)nc2-c1cc(Cl)c(F)cc1F [Example 222] | > 200
11 | C[C@]1(C(N)=O)COc2c1cc([C@@](O)(CNC(=O)c1ccc3nc(-c4ccc5nc(C(F)F)oc5c4)oc3c1)c1ccccc1)nc2-c1cc(Cl)c(F)cc1F [Example 223] | > 200
12 | CC(C)c1nc2ccc(C(=O)NC[C@@](O)(c3ccccc3)c3cc4c(c(-c5cc(Cl)c(F)cc5F)n3)OC[C@]4(C)C(N)=O)cc2o1 [Example 224] | > 200
13 | COc1cc(C(=O)NC[C@](O)(c2cc3c(c(-c4cc(Cl)c(F)cc4F)n2)OC[C@]3(C)C(N)=O)C2CC2)cc2cc(Cl)cnc12 [Example 225] | < 200
14 | C[C@]1(C(N)=O)COc2c1cc([C@@](O)(CNC(=O)c1cc(OC3CC3)c3ncc(Cl)cc3c1)C1CC1)nc2-c1cc(Cl)c(F)cc1F [Example 226] | < 200
15 | C[C@]1(C(N)=O)COc2c1cc([C@@](O)(CNC(=O)c1ccc3nc(-c4ccccc4)oc3c1)c1ccccc1)nc2-c1cc(Cl)c(F)cc1F [Example 227] | > 200
16 | C[C@]1(C(N)=O)COc2c1cc([C@@](O)(CNC(=O)c1cc(C(F)(F)F)c3nn(C4CC4)cc3c1)c1ccccc1)nc2-c1cc(Cl)c(F)cc1F [Example 228] | < 200
17 | C[C@]1(C(N)=O)COc2c1cc([C@@](O)(CNC(=O)c1cc(C(F)F)c3nn(C4CC4)cc3c1)c1ccccc1)nc2-c1cc(Cl)c(F)cc1F [Example 229] | < 200
18 | C[C@]1(C(N)=O)COc2c1cc([C@@](O)(CNC(=O)c1ccc3nc(Cc4ccccc4)oc3c1)c1ccccc1)nc2-c1cc(Cl)c(F)cc1F [Example 230] | > 200
19 | C[C@]1(C(N)=O)COc2c1cc([C@@](O)(CNC(=O)c1cc(OC(F)F)c3ncc(Cl)cc3c1)c1ccccc1)nc2-c1cc(Cl)c(F)cc1F [Example 231] | < 200
20 | C[C@]1(C(N)=O)COc2c1cc([C@@](O)(CNC(=O)c1cc(Cl)c3nc(C4CC4)oc3c1)c1ccccc1)nc2-c1cc(Cl)c(F)cc1F [Example 232] | < 200
21 | C[C@]1(C(N)=O)COc2c1cc([C@@](O)(CNC(=O)c1cc(OC3CC3)c3nc(C4CC4)oc3c1)c1ccccc1)nc2-c1cc(Cl)c(F)cc1F [Example 233] | < 200

Row | SMILES | EC50 [nM]
22 | Cc1nc2c(OC3CC3)cc(C(=O)NC[C@@](O)(c3ccccc3)c3cc4c(c(-c5cc(Cl)c(F)cc5F)n3)OC[C@]4(C)C(N)=O)cc2o1 [Example 234] | < 200
23 | COc1cc(C(=O)NC[C@](O)(c2cc3c(c(-c4cc(Cl)c(F)cc4F)n2)OC[C@]3(C)C(N)=O)C2CC2)cc(O)c1NC(=O)C1(F)CC1 [Example 236] | > 200
24 | COc1cc(C(=O)NC[C@@](O)(c2ccccc2)c2cc3c(c(-c4cc(Cl)c(F)cc4F)n2)OC[C@]3(C)C(N)=O)cc2oc(N)nc12 [Example 237] | < 200
25 | COc1cc(C(=O)NC[C@@](O)(c2ccccc2)c2cc3c(c(-c4cc(Cl)c(F)cc4F)n2)OC[C@]3(C)C(N)=O)cc2oc(C3(F)CC3)nc12 [Example 241] | < 200
26 | COc1cc(C(=O)NC[C@@](O)(c2ccccc2)c2cc3c(c(-c4cc(Cl)c(F)cc4F)n2)OC[C@]3(C)C(N)=O)cc(O)c1NC(=O)C1(F)CC1 [Example 242] | > 200
27 | COc1cc(C(=O)NC[C@](O)(c2cc3c(c(-c4cc(C(F)(F)F)ncc4F)n2)OC[C@]3(C)C(N)=O)C2CC2)cn2cc(C3CC3)nc12 [Example 246] | < 200
28 | COc1cc(C(=O)NC[C@@](O)(c2cccc(F)c2)c2cc3c(c(-c4ccc5c(c4Cl)OC(F)(F)O5)n2)OC[C@]3(C)C(N)=O)cc2oc(C)nc12 [Example 285] | < 200
29 | COc1cc(C(=O)NC[C@@](O)(c2cccc(F)c2)c2cc3c(c(-c4ccc5c(c4Cl)OC(F)(F)O5)n2)OC[C@]3(C)C(N)=O)cc2oc(C3CC3)nc12 [Example 286] | < 200
30 | COc1cc(C(=O)NC[C@@](O)(c2ccccc2)c2cc3c(c(-c4cc(C(F)F)c(F)cc4F)n2)OC[C@]3(C)C(N)=O)cc2cn(C(F)F)nc12 [Example 300] | < 200
31 | COc1cc(C(=O)NC[C@@](O)(c2cccc(F)c2)c2cc3c(c(-c4cc(C(F)(F)F)c(F)cc4F)n2)OC[C@]3(C)C(N)=O)cc2cn(C(F)F)nc12 [Example 301] | < 200
32 | COc1cc(C(=O)NC[C@@](O)(c2ccccc2)c2cc3c(c(-c4cc(C(F)(F)F)c(F)cc4F)n2)OC[C@]3(C)C(N)=O)cc2cn(C3CC3)nc12 [Example 302] | < 200
33 | COc1cc(C(=O)NC[C@@](O)(c2ccccc2)c2cc3c(c(-c4cc(C(F)(F)F)c(F)cc4F)n2)OC[C@]3(C)C(N)=O)cc2cn(C3(F)CC3)nc12 [Example 303] | < 200
34 | COc1cc(C(=O)NC[C@@](O)(c2ccccc2)c2cc3c(c(-c4cc(C(F)(F)F)c(F)cc4F)n2)OC[C@]3(C)C(N)=O)cc2cn(C(F)F)nc12 [Example 304] | < 200
35 | C[C@]1(C(N)=O)COc2c1cc([C@@](O)(CNC(=O)c1ccc3nc(C4CC4)oc3c1)c1ccccc1)nc2-c1cc(C(F)(F)F)c(F)cc1F [Example 307] | > 200
36 | C[C@]1(C(N)=O)COc2c1cc([C@@](O)(CNC(=O)c1ccc3nc(C4CC4)oc3c1)c1ccccc1)nc2-c1cc(C(F)F)c(F)cc1F [Example 311] | < 200
37 | C[C@]1(C(N)=O)COc2c1cc([C@@](O)(CNC(=O)c1ccc3nc(C4CC4)oc3c1)c1cccc(F)c1)nc2-c1ccc(F)c(Cl)c1Cl [Example 312] | < 200
38 | C[C@]1(C(N)=O)COc2c1cc([C@@](O)(CNC(=O)c1cc(OC3CC3)c3ncc(Cl)cc3c1)c1ccccc1)nc2-c1ccc(F)c(Cl)c1Cl [Example 313] | < 200
39 | C[C@]1(C(N)=O)COc2c1cc([C@@](O)(CNC(=O)c1cc(OC3CC3)c3ncc(Cl)cc3c1)c1ccccc1)nc2-c1cc(C(F)(F)F)c(F)cc1F [Example 315] | < 200
40 | COc1cc(C(=O)NC[C@](O)(c2cc3c(c(-c4cc(C(F)(F)F)c(F)cc4F)n2)OC[C@]3(C)C(N)=O)C2CC2)cc2cc(Cl)cnc12 [Example 316] | < 200
41 | C[C@]1(C(N)=O)COc2c1cc([C@@](O)(CNC(=O)c1cc(OC3CC3)c3ncc(Cl)cc3c1)C1CC1)nc2-c1cc(C(F)(F)F)c(F)cc1F [Example 317] | < 200
42 | C[C@]1(C(N)=O)COc2c1cc([C@@](O)(CNC(=O)c1cc(OC3CC3)n3nc(C4CC4)cc3c1)C1CC1)nc2-c1cc(C(F)(F)F)c(F)cc1F [Example 328] | < 200
